US11998610B2, “Conjugates and methods of using the same” (Flagship Pioneering Innovations V, Inc., priority 2018, dated 2024)

How the values were obtained:
[1] = tested on: E. coli Nissle 1917; experiment: Payload release in the presence of fecal matter, ClbP positive E. coli; format: cell-based; conditions: 10 μM compound, anaerobic, 37° C., 20 h, LCMS
Description: (§1) This example is representative of the methods described in Example 103. Fecal samples were subjected to metagenomic whole-genome shotgun sequencing followed by querying the dataset for the presence of the clbP gene or by attempting to amplify the gene with primers specific for it by qPCR. Samples that gave a signal below the detection limit were used in subsequent steps. The fecal sample was resuspended as a 15% (w/v) slurry in Anaerobic Phosphate Buffer Saline.
(§2) Following steps 1 and 2 as detailed in Example 98, E. coli CFT073 ATCC 700928, E. coli Nissle 1917, or E. coli BL21(DE3) were grown in liquid culture.
(§3) In an anaerobic chamber, the E. coli strains were added to the fecal samples obtained in step 1 at a dilution level calculated to represent 0, 1, 10, 50, 90, 99, or 100% of all organisms present in PRAS dilution blank on a 200 μL volume. The test compound (10 μM final concentration) was added to the mixture. The test compound was also added to a bacteria-free media control under similar conditions. The plate was sealed and incubated at 37° C. for 20 h. Under similar conditions, a standard curve of both the starting material and the payload compound was made in bacteria-free media.
(§4) After 20 h, an aliquot was tested for breakdown and release of a payload by LCMS by diluting serially to a final dilution of 1:100 first with Acetonitrile (10× dilution) and then with (1:1) Mobile Phase A-0.1% Formic Acid in Water:Mobile Phase B-0.1% Formic acid in Acetonitrile (1 OX dilution), with absolute quantification compared to the external standard curve. In an ideal case, the amount of payload released in the reaction(s) with ClbP-encoding E. coli was >75% of the theoretical maximum, and none was released in the E. coli BL21(DE3) and media-alone conditions. In an acceptable case, the amount of payload released in the reaction(s) with ClbP-encoding E. coli was 25-75% of the theoretical maximum, and <25% of the theoretical maximum was released in the E. coli BL21(DE3) and media-alone conditions. In a non-preferred case, the amount of payload released in the reactions(s) with ClbP-encoding E. coli was <25% of the theoretical maximum, and >25% of the theoretical maximum was released in the E. coli BL21(DE3) and media-alone conditions.

[2] = tested on: E. coli BL21(DE3); experiment: Cell-based assay with ClbP with LCMS, ClbP negative strain; conditions: 10 μM compound, 37° C., 20 h
In short: (§5)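 Compound (10 μM final) incubated 20 h at 37° C, aerobically, with 1:40-diluted overnight cultures of ClbP-positive E. coli or negative BL21(DE3), in duplicate, alongside uninoculated LB. Remaining parent quantified by LC-MS/MS (MRM) after acetonitrile quench, expressed as percent of media-alone.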

[3] = tested on: E. coli CFT073 ATCC 700928 and/or E. coli Nissle 1917; experiment: Cell-based assay with ClbP with LCMS, ClbP positive strain
In short: as §5

[4] = tested on: E. coli BL21(DE3); experiment: Payload release in the presence of fecal matter, ClbP negative E. coli; format: cell-based; conditions: 10 μM compound, anaerobic, 37° C., 20 h, LCMS
Description: as §1, §2, §3, §4

[5] = tested on: CT26.CL25 cells; experiment: Cell viability readout (CellTiter-Glo) with bacteria-free media; format: cell-based, mouse; conditions: 10 nM compound, CT26.CL25 cells, 72 h, CellTiter-Glo
Method: Example 100: Cell-Based Assay of Bacterial Enzymes with Mammalian CT26.CL25 Mouse Colorectal Carcinoma Viability Readout
Bacteria-free media was incubated with the indicated test compound. ((R)—N1-(2-(methylamino)ethyl)-2-octanamidosuccinamide, a recognition element-linker conjugate lacking a payload, was serially diluted 1:1000 in DMSO and […] in medium+10% FBS to give a final concentration of 10 nM. Compound 35, Compound 76, Compound 77, Compound 78, Compound 79, and SN-38 were serially diluted 1:1000 in DMSO and 1:1000 in medium to give a final concentration of 10 nM, and then the bacteria-free supernatants were tested for their ability to kill mammalian cells. As an additional control, the test compound will also be incubated with bacteria-free media. The above steps can also be performed in the presence of E. coli (CFT073 ATCC 700928, Nissle 1917, or BL21 (DE3)) to effect cleavage of the conjugates of the application.
On Day 1, CT26.CL25 cells (15,000 cells/well) were seeded in triplicate into a 24 well plate and incubated overnight in 100 μL of complete medium. The reactions (bacteria or media blank) was pelleted by centrifugation, and then the supernatant was passed through a 0.2 μm sterile filter to remove residual bacteria.
On Day 2, 300 μL of a 10 nM solution of each compound in media were applied to separate wells of CT26.CL25 cells as prepared on Day 1. The cells were incubated at 37° C. for 72 h. After this point, viability was assessed using a CellTiter-Glo kit.
Binning of the compounds was achieved by measuring cell growth or arrest (e.g. remaining cells are >90% viable, >80% viable, >70% viable, >60% viable, >50% viable, >40% viable, >30% viable, >20% viable, or >10% viable).

Compound | % payload released in ClbP positive (Nissle 1917) at 1:1 ratio of E. coli to fecal bacteria [1] [%] | % Remaining in ClbP Negative Relative to Media-Only [2] | % Remaining in ClbP Positve Relative to Media-Only ([3]; ClbP-encoding E. coli, 10 μM compound, 37° C., 20 h) | Difference between the ClbP Positive and ClbP Negative release profiles ([3]; conclusion from Table 4) | % payload released in ClbP negative (BL21 DE3) at 1:1 ratio of E. coli to fecal bacteria [4] [%] | Bacteria-free media (Luminescence, average of three runs) [5]
CCCCCCCC(=O)N[C@H](CC(N)=O)C(=O)NCCCC(=O)OCn1cc(F)c(=O)[nH]c1=O [Example 72B, (5-fluoro-2,4-dioxo-3,4-dihydropyrimidin-1(2H)-yl)methyl (R)-4-(4-amino-2-octanamido-4-oxobutanamido)butanoate] | 41.1 | − (>75% compound remaining in the 20 μM WT ClbP reaction relative to the no-enzyme control) | ++ (<25% compound remaining in the 20 μM WT ClbP reaction relative to the control) | particularly favorable difference | 5.4 | 
CCCCCCCC(=O)N[C@H](CC(N)=O)C(=O)NCCN(C)C(=O)Oc1ccc2nc3c(c(CC)c2c1)Cn1c-3cc2c(c1=O)COC(=O)[C@]2(O)CC [Example 76, (S)-4,11-diethyl-4-hydroxy-3,14-dioxo-3,4,12,14-tetrahydro-1H-pyrano[3′,4′:6,7]indolizino[1,2-b]quinolin-9-yl (2-((R)-4-amino-2-octanamido-4-oxobutanamido)ethyl)(methyl)carbamate] | 25 |  |  |  | 0 | 282345
CCCCCCNC(=O)N[C@H](CC(N)=O)C(=O)NCCN(C)C(=O)Oc1ccc2nc3c(c(CC)c2c1)Cn1c-3cc2c(c1=O)COC(=O)[C@]2(O)CC [Example 77, (S)-4,11-diethyl-4-hydroxy-3,14-dioxo-3,4,12,14-tetrahydro-1H-pyrano[3′,4′:6,7]indolizino[1,2-b]quinolin-9-yl (2-((R)-4-amino-2-(3-hexylureido)-4-oxobutanamido)ethyl)(methyl)carbamate] | 0 |  |  |  | 0 | 345334
CCc1c2c(nc3ccc(OC(=O)N(C)CCNC(=O)[C@@H](CC(N)=O)NC(=O)CCCc4ccccc4)cc13)-c1cc3c(c(=O)n1C2)COC(=O)[C@]3(O)CC [Example 78, (S)-4,11-diethyl-4-hydroxy-3,14-dioxo-3,4,12,14-tetrahydro-1H-pyrano[3′,4′:6,7]indolizino[1,2-b]quinolin-9-yl (2-((R)-4-amino-4-oxo-2-(4-phenylbutanamido)butanamido)ethyl)(methyl)carbamate] | 0 |  |  |  | 0 | 317645
CCCCCCCC(=O)N[C@H](CC(N)=O)C(=O)NCCN(C)C(=O)O[C@]1(CC)C(=O)OCc2c1cc1n(c2=O)Cc2c-1nc1ccc(O)cc1c2CC [Example 79, (S)-4,11-diethyl-9-hydroxy-3,14-dioxo-3,4,12,14-tetrahydro-1H-pyrano[3′,4′:6,7]indolizino[1,2-b]quinolin-4-yl (2-((R)-4-amino-2-octanamido-4-oxobutanamido)ethyl)(methyl)carbamate] | 0 |  |  |  | 0 | 288245
